The term Dmax denotes the greatest extent of degradation seen. A higher Dmax goes with a fuller loss of target. In general, pKi refers to −log10 of the Ki, conventionally taken in molar units. A high value points to a low Ki.

pKi: −log10 of the molar value.

One assay deals with T1, CDK2 (Homo sapiens, UniProt P24941).
T1 construct: HEK293 clonal lines with CRISPR KI HiBiT tag on CDK2 proteins; host or cells: HEK293 clonal line, CRISPR knock-in HiBiT-CDK2, stably expressing LgBiT
Description: HiBiT assay (CDK2 degradation). Format: cell-based. As to conditions: HEK293 clonal line with CRISPR KI HiBiT tag on CDK2, 24 hours, HiBiT Lysis Reagent. How it is done: HEK293 clonal lines with CRISPR KI HiBiT tag on CDK2 proteins and stably expressing LgBiT protein were obtained from Promega (Madison, WI). Cells were plated at 5000 cells per well using Multiflo (BioTek) in 384-well white solid bottom plates (Corning, 3570BC) in 25 ul volume in DMEM media (DMEM, high glucose, HEPES, no phenol red (ThermoFisher Scientific, 21063029)) containing 10% FBS (Corning, 35-075-CV), 1% Penicillin/Streptomycin (ThermoFisher Scientific, 15140-122). Cells were incubated for 16 hours at 37° C., 5% CO2. 75 nL of a compound at 30 μM were dosed into the plate using an Echo® 650 liquid handler (Labcyte). Cells were incubated at 37° C., 5% CO2 for 24 hours. 5 ul of HiBiT Lysis Reagent (Promega, N3030) is added using Combi Multidrop (ThermoFisher Scientific), plates are incubated for 15′ at 37° C., 5% CO2 and then signal was read on a Pherastar FSX using “LUM plus” optic module.
Analysis was performed in Scinamic (Scinamic, Cambridge, MA). Luminescence response (R) was calculated by the formula: response=100*(S−N)/(P−N) where S is the signal of the well, N and P the mean negative and positive control values respectively of the same plate. The luminescence response was then fitted in Scinamic using a 3-parameter agonist logistic fit (hillslope=1, EC50>0, top/bottom unconstrained).

The next assay concerns the target CRBN-DDB1 (Homo sapiens, UniProt Q96SW2). Description: Compound binding to CRBN by HTRF assay. As to conditions: CRBN-DDB1 2.5 nM, Cy5-Thalidomide 100 nM, 30 min; Ki from geometric mean IC50 by Cheng-Prustoff transformation. The gist of the method:
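HTRF displacement of Cy5-thalidomide probe (100 nM) from His-CRBN-DDB1 (2.5 nM) with anti-His terbium cryptate, in HEPES/NaCl/TCEP/EDTA/Tween20 buffer. 10-point 1:3 compound series, 30 min at ambient temperature; signal normalised to DMSO and lenalidomide controls, IC50 fitted and Ki derived by Cheng-Prusoff.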

CRBN-DDB1, sequence (Q96SW2 whole entry): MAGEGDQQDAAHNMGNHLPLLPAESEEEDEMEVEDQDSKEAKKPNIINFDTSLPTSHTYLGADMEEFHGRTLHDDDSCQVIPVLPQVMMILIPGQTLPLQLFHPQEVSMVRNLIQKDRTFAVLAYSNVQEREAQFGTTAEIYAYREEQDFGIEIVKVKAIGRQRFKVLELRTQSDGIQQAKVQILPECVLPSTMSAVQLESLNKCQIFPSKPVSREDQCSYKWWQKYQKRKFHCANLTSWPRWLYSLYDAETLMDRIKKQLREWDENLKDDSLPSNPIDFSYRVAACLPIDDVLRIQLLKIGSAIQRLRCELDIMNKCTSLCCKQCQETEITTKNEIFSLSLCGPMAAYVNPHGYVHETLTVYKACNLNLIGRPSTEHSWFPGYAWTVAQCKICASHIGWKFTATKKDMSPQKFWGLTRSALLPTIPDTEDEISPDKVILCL
CRBN-DDB1, sequence (Q16531 whole entry partner): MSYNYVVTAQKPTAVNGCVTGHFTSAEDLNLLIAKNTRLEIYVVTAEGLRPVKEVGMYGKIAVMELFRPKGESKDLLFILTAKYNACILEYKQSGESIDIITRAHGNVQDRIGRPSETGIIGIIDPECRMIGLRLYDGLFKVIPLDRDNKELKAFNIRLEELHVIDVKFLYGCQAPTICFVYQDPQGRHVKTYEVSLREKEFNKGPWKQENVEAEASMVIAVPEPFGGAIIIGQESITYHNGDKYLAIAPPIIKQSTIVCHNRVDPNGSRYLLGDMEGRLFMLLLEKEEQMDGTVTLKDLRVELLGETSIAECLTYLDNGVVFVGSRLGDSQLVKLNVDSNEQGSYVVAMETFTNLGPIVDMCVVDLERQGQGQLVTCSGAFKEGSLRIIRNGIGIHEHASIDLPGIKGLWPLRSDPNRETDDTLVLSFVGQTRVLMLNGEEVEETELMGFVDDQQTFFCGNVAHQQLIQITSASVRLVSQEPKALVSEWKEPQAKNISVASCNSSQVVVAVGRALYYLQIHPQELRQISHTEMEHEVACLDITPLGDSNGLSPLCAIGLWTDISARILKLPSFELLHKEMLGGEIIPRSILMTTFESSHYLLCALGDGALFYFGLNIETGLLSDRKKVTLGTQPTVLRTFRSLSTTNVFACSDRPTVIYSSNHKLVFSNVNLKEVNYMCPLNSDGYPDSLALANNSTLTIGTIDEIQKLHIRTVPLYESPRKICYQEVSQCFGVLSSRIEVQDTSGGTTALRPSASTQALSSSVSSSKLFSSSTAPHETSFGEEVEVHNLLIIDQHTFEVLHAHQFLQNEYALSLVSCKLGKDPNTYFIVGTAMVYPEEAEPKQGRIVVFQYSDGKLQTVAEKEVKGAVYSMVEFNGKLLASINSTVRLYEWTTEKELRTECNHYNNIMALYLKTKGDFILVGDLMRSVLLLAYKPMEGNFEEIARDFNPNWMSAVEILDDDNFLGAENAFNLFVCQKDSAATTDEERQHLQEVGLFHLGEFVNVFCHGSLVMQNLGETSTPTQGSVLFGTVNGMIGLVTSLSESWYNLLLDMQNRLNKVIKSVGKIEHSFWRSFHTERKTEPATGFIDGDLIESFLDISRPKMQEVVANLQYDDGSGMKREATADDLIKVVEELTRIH

As to `COC1CC(COC(=O)NCc2ccc3c(c2)C(=O)N(C2CCC(=O)NC2=O)C3)C1` (stereo not drawn) [Compound 66, (3-methoxycyclobutyl)methyl N-{[2-(2,6-dioxopiperidin-3-yl)-3-oxo-2,3-dihydro-1H-isoindol-5-yl]methyl}carbamate], at CDK2, the Dmax lay in the range of 10 to 50%. The pKi at CRBN-DDB1 is 6.00 to 7.00.
In turn, `CCOC1CC(COC(=O)NCc2ccc3c(c2)C(=O)N(C2CCC(=O)NC2=O)C3)C1` (stereo not drawn) [Compound 67, (3-ethoxycyclobutyl)methyl N-{[2-(2,6-dioxopiperidin-3-yl)-3-oxo-2,3-dihydro-1H-isoindol-5-yl]methyl}carbamate] had a Dmax on CDK2 of 10 to 50%. Besides, the pKi at CRBN-DDB1 is 6.00 to 7.00.
In the case of `CC(C)(CCOC(=O)NCc1ccc2c(c1)C(=O)N(C1CCC(=O)NC1=O)C2)C1CC1` (stereo not drawn) [Compound 69, 3-cyclopropyl-3-methylbutyl N-{[2-(2,6-dioxopiperidin-3-yl)-3-oxo-2,3-dihydro-1H-isoindol-5-yl]methyl}carbamate], the maximal degradation (Dmax) at CDK2 was 50 to 80%. The molecule also showed a pKi on CRBN-DDB1 of at least 7.00.
Taken in the same sequence, the figures for `O=C1CCC(N2Cc3ccc(CNC(=O)OCC4(F)CCC4)cc3C2=O)C(=O)N1` (stereo not drawn) [Compound 74, (1-fluorocyclobutyl)methyl N-{[2-(2,6-dioxopiperidin-3-yl)-3-oxo-2,3-dihydro-1H-isoindol-5-yl]methyl}carbamate] were at most 10% and 6.00 to 7.00.
The molecule `CC(C)(C)C1CC(OC(=O)NCc2ccc3c(c2)C(=O)N(C2CCC(=O)NC2=O)C3)C1` (stereo not drawn) [Compound 84, 3-tert-butylcyclobutyl N-{[2-(2,6-dioxopiperidin-3-yl)-3-oxo-2,3-dihydro-1H-isoindol-5-yl]methyl}carbamate] yielded a maximal degradation (Dmax) on CDK2 of 50 to 80%. The molecule also had a pKi at CRBN-DDB1 of 6.00 to 7.00.
In turn, `O=C1CCC(N2Cc3ccc(CNC(=O)OCC4C(F)(F)C45CC5)cc3C2=O)C(=O)N1` (stereo not drawn) [Compound 86, {2,2-difluorospiro[2.2]pentan-1-yl}methyl N-{[2-(2,6-dioxopiperidin-3-yl)-3-oxo-2,3-dihydro-1H-isoindol-5-yl]methyl}carbamate] came in with a maximal degradation (Dmax) on CDK2 of 50 to 80%. Also, on CRBN-DDB1, the pKi was at least 7.00.
`O=C1CCC(N2Cc3ccc(CNC(=O)OCC4CCC(F)(F)CC4)cc3C2=O)C(=O)N1` (stereo not drawn) [Compound 88, (4,4-difluorocyclohexyl)methyl N-{[2-(2,6-dioxopiperidin-3-yl)-3-oxo-2,3-dihydro-1H-isoindol-5-yl]methyl}carbamate]: the Dmax at CDK2 is 10 to 50%. This molecule gave a pKi on CRBN-DDB1 of 6.00 to 7.00.
On CDK2, `CC(C)C1CCC(OC(=O)NCc2ccc3c(c2)C(=O)N(C2CCC(=O)NC2=O)C3)CC1` (stereo not drawn) [Compound 89, 4-(propan-2-yl)cyclohexyl N-{[2-(2,6-dioxopiperidin-3-yl)-3-oxo-2,3-dihydro-1H-isoindol-5-yl]methyl}carbamate] came in with a Dmax of 50 to 80%. In addition, on CRBN-DDB1, the pKi was 6.00 to 7.00.
In the case of `O=C1CCC(N2Cc3ccc(CNC(=O)OC4CC5(CCOCC5)C4)cc3C2=O)C(=O)N1` (stereo not drawn) [Compound 90, 7-oxaspiro[3.5]nonan-2-yl N-{[2-(2,6-dioxopiperidin-3-yl)-3-oxo-2,3-dihydro-1H-isoindol-5-yl]methyl}carbamate], the Dmax at CDK2 was in the range of 10 to 50%. The pKi at CRBN-DDB1 was 6.00 to 7.00.
On CDK2, `O=C1CCC(N2Cc3ccc(CNC(=O)OCC4CC5(C4)CC54CCC4)cc3C2=O)C(=O)N1` (stereo not drawn) [Compound 93, {dispiro[3.0.3^5.1^4]nonan-2-yl}methyl N-{[2-(2,6-dioxopiperidin-3-yl)-3-oxo-2,3-dihydro-1H-isoindol-5-yl]methyl}carbamate] showed a Dmax of 50 to 80%. Also, at CRBN-DDB1, the pKi was at least 7.00.
Turning to `O=C1CCC(N2Cc3ccc(CNC(=O)OCC4CC5(CCCC5)CO4)cc3C2=O)C(=O)N1` (stereo not drawn) [Compound 94, {2-oxaspiro[4.4]nonan-3-yl}methyl N-{[2-(2,6-dioxopiperidin-3-yl)-3-oxo-2,3-dihydro-1H-isoindol-5-yl]methyl}carbamate], at CDK2, the Dmax fell in the range of 10 to 50%. Further, the pKi at CRBN-DDB1 is 6.00 to 7.00.
With `O=C1CCC(N2Cc3ccc(CNC(=O)OCC4CC45CCC(F)(F)CC5)cc3C2=O)C(=O)N1` (stereo not drawn) [Compound 95, {6,6-difluorospiro[2.5]octan-1-yl}methyl N-{[2-(2,6-dioxopiperidin-3-yl)-3-oxo-2,3-dihydro-1H-isoindol-5-yl]methyl}carbamate], the Dmax at CDK2 fell in the range of 10 to 50%. Besides, the pKi at CRBN-DDB1 was 6.00 to 7.00.

For the origin of these results see patent US20240317706A1, “COMPOUNDS THAT MEDIATE PROTEIN DEGRADATION AND METHODS OF USE THEREOF” (Monte Rosa Therapeutics, Inc., priority 2021, published 2024).
